Earlier results as cited in USRE39705E1, “Method of treating glutathione deficient mammals” (Vit-Immune, L.C., priority 1998, dated 2007).
Each block holds one compound with its values, some of them ahead of it.

Assays:
[1] = not given; remark: listed apart in the source

absorption of oral supplementation by the mammal's cells: not well absorbed | replenishment of intracellular glutathione losses (oral): does not replenish losses inside cells
SMILES: N[C@@H](CCC(=O)N[C@@H](CS)C(=O)NCC(=O)O)C(=O)O [glutathione, γ-L-Glutamyl-L-cysteinylglycine]

SMILES: N[C@@H](CS)C(=O)O [Example 1-cysteine, 1-cysteine]
GSH levels ([1]; substituted into the diet in place of the total protein allowance): effective in raising GSH levels

SMILES: O=C(O)CCCCC1CCSS1 (stereo not drawn) [Alpha lipoic acid, alpha lipoic acid]
intracellular reduced glutathione ([1]; in vitro and in vivo (literature)): substantial increase

SMILES: NC(=O)CC[C@H](N)C(=O)O [L-glutamine]
liver glutathione ([1]; after lethal hepatic injury): preserve liver glutathione
